Test results from patent publication US20260194517A1, “FRUCTOSE-1,6-DIPHOSPHATE OPTICAL PROBE, AND PREPARATION METHOD THEREFOR AND USE THEREOF” (EAST CHINA UNIVERSITY OF SCIENCE AND TECHNOLOGY, priority 2022, published 2026).

system: not listed separately; assay: Screening of linker-mutated cpYFP optical probes for response to fructose-1,6-bisphosphate; type: biochemical; conditions: linker mutants of CggR(88-340)-cpYFP; 485 nm/420 nm signal ratio of sample relative to control
Description: The invention also provides use of fructose-1,6-bisphosphate optical probes in real-time localization, quantitative detection and high-throughput compound screening of fructose-1,6-bisphosphate. In one aspect, the fructose-1,6-bisphosphate optical probe, preferably linked with signal peptides at different parts of the cell, is transferred into cells for real-time localization of fructose-1,6-bisphosphate by detecting the strength of fluorescence signals in cells, corresponding quantitative detection of fructose-1,6-bisphosphate is performed by a fructose-1,6-bisphosphate standard titration curve. […] In the embodiment involving cpYFP, the ratio is the ratio of the ratio of the sample's 485-nanometer fluorescence signal to the 420-nanometer fluorescence signal to the corresponding ratio of the control. The fructose-1,6-bisphosphate standard titration curve of the present invention is drawn based on the fluorescence signal of the fructose-1,6-bisphosphate optical probe under different concentrations of fructose-1,6-bisphosphate. The fructose-1,6-bisphosphate optical probe described herein is directly transferred into cells, which is more accurate without time-consuming sample processing process during the real-time localization and quantitative detection of fructose-1,6-bisphosphate. When the fructose-1,6-bisphosphate optical probe of the present invention is used for high-throughput compound screening, different compounds are added to the cell culture fluid, and the change of fructose-1,6-bisphosphate content is measured, so as to screen out compounds that affect the change of fructose-1,6-bisphosphate content.
• 1. An expression vector (such as a pCDF-based fructose-1,6-bisphosphate optical probe expression vector) was transform into BL21 (DE3) cells, and invert-cultured overnight, and clones were picked from the plate into a 250 ml Erlenmeyer flask, and placed in a 37° C. shaker, cultured at 220 rpm to OD=0.4-0.8, add 1/1000 (v/v) IPTG (1 M), and induced expression at 18° C. for 24-36 h. • 2. After induction, cells were harvested by centrifugation at 4000 rpm for 30 min, resuspended in 50 mM phosphate buffer and disrupted ultrasonically until the broth were clear, centrifuged at 9600 rpm at 4° C. for 20 min. • 3. The centrifuged supernatant was purified by a self-packed nickel-column affinity chromatography column to obtain the protein, and the protein after nickel-column affinity chromatography was then passed through a self-packed desalting column to obtain the protein dissolved in 100 mM HEPES buffer (pH 7.4). • 4. After the purified protein was identified by SDS-PAGE, the probe was diluted with assay buffer (100 mM HEPES, 100 mM NaCl, pH 7.4) into a protein solution with a final concentration of 0.2-5 μM. Fructose-1,6-bisphosphate was prepared as a stock solution at a final concentration of 50 mM with assay buffer (100 mM HEPES, 100 mM NaCl, pH 7.4). • 5. 100 μl of 1 μM protein solution was taken and incubated at 37° C. for 10 min, […], and measured the fluorescence intensity of the protein at 528 nm after excitation at 420 nm and fluorescence intensity of the protein at 528 nm after excitation at 485 nm. The fluorescence excitation and emission measurement of the samples were completed by a multifunctional fluorescence microplate reader. • 6.100 μl of 1 μM protein solution was taken, incubated at 37° C. for 10 min, tryptophan was added, and measured the absorption and fluorescence spectra of the protein. The determination of the absorption spectrum and fluorescence spectrum of the sample was completed by a spectrophotometer and a fluorescence spectrophotometer.
Optical probe mutants were constructed based on PCDF-CggR(88-340)-176/177-CPYFP, PCDF-CggR(88-340)-176/178-CPYFP, PCDF-CggR(88-340)-177/181-CPYFP, PCDF-CggR(88-340)-179/180-CPYFP, PCDF-CggR(88-340)-182/184-CPYFP, PCDF-CggR(88-340)-182/185-CPYFP, PCDF-CggR(88-340)-203/206-CPYFP, PCDF-CggR(88-340)-203/207-CPYFP and PCDF-CggR-203/208(88-340)-CPYFP. […]

Compound	Standardized fluorescence signal ratio
Serial number 17: cpYFP at 182/184 of CggR(88-340); CggR: N184V/Q185P/D181E/V182G/G177L CPYFP: Y1I; SEQ ID NO: 15	12
Serial number 8: cpYFP at 176/177 of CggR(88-340); CggR: G177M/L178N/Q185T; SEQ ID NO: 12	4
Serial number 7: cpYFP at 176/177 of CggR(88-340); CggR: G177M/L178N/Q185A; SEQ ID NO: 11	4
Serial number 9: cpYFP at 176/177 of CggR(88-340); CggR: G177M/L178N/Q185D; SEQ ID NO: 13	4.17
Serial number 4: cpYFP at 176/177 of CggR(88-340); CggR: G177M/L178N; SEQ ID NO: 10	4.54
Serial number 16: cpYFP at 182/184 of CggR(88-340); CggR: N184V/Q185P/D181E/V182G/G177L CPYFP: Y1V; SEQ ID NO: 14	11.6
Serial number 20: cpYFP at 182/184 of CggR(88-340); CggR: N184V/Q185P/D181E/V182G CPYFP: Y1V; SEQ ID NO: 16	9.6

system: H1299 cells; assay: Dynamic monitoring of cytoplasmic fructose-1,6-bisphosphate in H1299 cells expressing the optical probe; type: cell-based; conditions: 0.5 mM 3-BrPA in HBSS, 30-min period, H1299 cells with cytoplasm-expressed probe
Method: • 1. The pCDNA3.1+-based fructose-1,6-bisphosphate optical probe plasmid was transfected into HEK293 cells by the transfection reagent Lipofectamine2000 (Invitrogen), and cultured in a cell incubator at 37° C., 5% CO2. Fluorescence detection was performed 24-36 h after the exogenous gene was fully expressed. • 2. After induction of expression, adherent HEK293 cells were washed three times with PBS and placed in HBSS solution for fluorescence microscopy and microplate reader assays, respectively.
After H1299 cells were transfected with the cytoplasm-expressed optical probe plasmid for 36 h, they were washed with PBS and placed in HBSS solutions containing 0 mM 3-BrPA and 0.5 mM 3-BrPA, and the changes in the ratio of the fluorescence intensity at 528 nm emission and at 420 nm excitation and the fluorescence intensity at 528 nm emission at 485 nm excitation were detected over a 30-min period.

Compound	ratio of 420/485, maximum relative to the initial value [times the initial value]
O=C(O)C(=O)CBr [3-BrPA]	3.7
